SMILES strings stand for the structures.

In experiment [1] the target is T1, p38 MAPK (Homo sapiens, UniProt Q16539).
T1 construct: made in house; host or cells: cells (e.g., HeLa) transfected with kinase DNA, stimulated, kinase immunoprecipitated from lysate
Put plainly: phosphorylation assay of p38 MAPK activity (see Kumar). To be noted: assay similar to the phosphorylation assay (Kumar); read-out: p38 MAPK activity, relative IC50 value. Format: biochemical. The protocol: After immunoprecipitation of cell lysates, equal aliquots of immune complexes of the kinases are pre-incubated for an adequate time with a specific concentration of the potential inhibitor followed by addition of kinase substrate buffer mix containing labeled ATP and GST-ATF2 or MBP. […] Phosphorylated substrate is resolved through SDS-PAGE and visualized and quantitated in a phosphorimager. […] Res. Commun.

For experiment [2], the system named is monocyte migration. As to conditions: Chen 2001; cited from earlier work.
Experiment [3] deals with rat insulinoma cells. To be noted: cited from earlier work.

T1 sequence (Q16539 whole entry): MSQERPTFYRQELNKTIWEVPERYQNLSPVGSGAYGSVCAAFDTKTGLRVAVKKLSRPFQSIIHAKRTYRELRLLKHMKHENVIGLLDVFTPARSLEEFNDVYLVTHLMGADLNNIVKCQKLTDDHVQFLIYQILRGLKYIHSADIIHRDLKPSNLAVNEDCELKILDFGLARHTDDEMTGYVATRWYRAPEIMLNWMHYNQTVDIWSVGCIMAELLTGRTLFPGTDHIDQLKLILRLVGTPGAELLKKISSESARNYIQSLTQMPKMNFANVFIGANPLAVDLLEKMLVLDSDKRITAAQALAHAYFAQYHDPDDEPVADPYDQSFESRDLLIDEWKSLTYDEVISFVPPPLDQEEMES

On to `COc1cc2c(cc1C(=O)N1CC(C)N(Cc3ccc(F)cc3)CC1C)c(C(=O)C(=O)N(C)C)cn2C` (stereo not drawn) [compound 15], for which the IC50 in experiment [1] was less than 5 nM. `C[S+]([O-])c1ccc(-c2nc(-c3ccncc3)c(-c3ccc(F)cc3)[nH]2)cc1` (stereo not drawn) [SB203580]: the Monocyte migration result in experiment [2] was “blockade”. In addition, in experiment [3], the “p38-dependent enhancement of cytokines expression by hsp70” value was “blocks this activity”.

A word on the IC50: it is the midpoint of a concentration-inhibition curve.

The record behind these values is patent publication US20040171659A1, “Methods for treating diabetes” (priority 2002, published 2004).
